Test results published in patent US10987059B2, “Electronic scaffold and uses thereof” (Ramot at Tel-Aviv University Ltd., priority 2013, dated 2021).

Legend:
[1] = poly(2-acrylamido-2-methylpropane sulfonic acid-co-n-butylmethacrylate) scaffold; PBS medium; optical density at 462
Experimental: The release profile of dopamine from device polymeric element made of a positive electro-responsive polymer as described herein was measured as follows:
Disc shaped preloaded slices of formed hydrogel (2-3 mm) were placed between two Graphite electrodes (1 cm apart) in a plastic culture plate. The electrodes were connected to a stimulus generator (STG-4002 multichannel systems, Germany), and the plate was filled with a medium of PBS (0.35 ml). A DC pulse of different intensities (0-8 volt) and different durations (0-15 minutes) was supplied.
Nano-Drop spectrophotometer (ND-1000 spectrophotometer, Thermo scientific, Wilmington Del. U.S.A) at a wave length of 462 was used to examine the light absorbance of the medium. The relation between the light absorbance and the concentration is given by Beer-Lambert as a linear equation: A=εlc
wherein A is the light absorbance, l is the length of the light through the sample [m], C is the concentration in [M], and ε is the molar absorptivity [m^−1M^−1].

[2] = Release profile of SSA from polypyrrole hydrogel scaffold upon voltage application; assay type: physicochemical; conditions: absorbance at 280 nm
Experimental: Pyrrole was […] in a 10-mL one-compartment cell, using an electrochemical workstation under computer control. The gold-based microelectrodes, prepared as described in Example 1 hereinabove, were used as working electrodes. The counter electrode was platinum wire and the reference electrode was a saturated calomel electrode (SCE). The electrolyte was an aqueous solution (100 ml) containing 0.2 M pyrrole (1.39 ml) and 0.2 M sulfosalicylic acid (5.08 grams), which was degassed by nitrogen stream before polymerization was effected. The SSA-doped PPy films (PPy-SSA) were prepared on the gold microelectrodes by galvanostatic polymerization using a current density of 2.5 mA/cm^2 for 800 seconds. The as-prepared PPy-SSA films were rinsed with de-ionized water and dried in air at room temperature. A second layer was thereafter deposited by using an aqueous solution (100 ml) of 0.2 M pyrrole and 0.1 M NaCl (0.5844 grams), subjected to a galvanostatic polymerization with a current density of 2 mA/cm^2 for 500 seconds.

[3] = test system: neonatal rat ventricular cardiomyocytes; assay: Action potentials recorded from the engineered (cyborg) tissue before and after adding a stimulating drug; assay type: cell-based; conditions: 100 nM in growth medium, 15 minutes incubation; single electrode; device with albumin fibrous scaffold; before vs after drug
Experimental: After the device was incubated for a time period that allows tissue generation, the obtained cyborg tissue was connected to the pre-amplifier and monitored through the computer, using a system as exemplified in FIG. 8. This allows monitoring the progress of tissue formation as well as studying the influence of different conditions and substances on the tissue, an approach that could replace animal drug testing and make it easier and simpler.
At the time of the recording, the device was connected to a ME64-FAI-MPA-System by multichannel systems (Germany). Action potentials were recorded using the MC rack software which allows recording over multiple electrodes simultaneously.
After action potentials were recorded, 100 nM of noradrenaline was added to the growth medium and the device was allowed to incubate for 15 minutes after which the device was reconnected and action potentials were again recorded.

Compound: NCCc1ccc(O)c(O)c1 [dopamine]
- drug release rate, voltage on vs off [1]: much higher drug release rate when voltage is applied (on) than when it is not applied (off)

Compound: O=C(O)c1cc(S(=O)(=O)O)ccc1O [SSA, Sulfosalicylic acid]
- drug release, voltage on vs off [2]: When voltage is applied the drug is released into the polymer's vicinity and when voltage application is discontinued drug release ceases

Compound: NC[C@H](O)c1ccc(O)c(O)c1 [Noradrenalin]
- frequency of the action potentials [3]: increased
